The target of this experiment is IgA-specific serine endopeptidase autotransporter (Neisseria gonorrhoeae, UniProt P09790). Description: Inhibitory concentration against type 1 IgA1 proteinases secreted by Neisseria gonorrhoeae.

Each structure is given as a SMILES string. Peptide text beside a SMILES is read from it.

What is called IC50 is the point on the concentration scale where inhibition reaches its midpoint. Read a low IC50 as greater potency.

Sequence of IgA-specific serine endopeptidase autotransporter (P09790 whole entry): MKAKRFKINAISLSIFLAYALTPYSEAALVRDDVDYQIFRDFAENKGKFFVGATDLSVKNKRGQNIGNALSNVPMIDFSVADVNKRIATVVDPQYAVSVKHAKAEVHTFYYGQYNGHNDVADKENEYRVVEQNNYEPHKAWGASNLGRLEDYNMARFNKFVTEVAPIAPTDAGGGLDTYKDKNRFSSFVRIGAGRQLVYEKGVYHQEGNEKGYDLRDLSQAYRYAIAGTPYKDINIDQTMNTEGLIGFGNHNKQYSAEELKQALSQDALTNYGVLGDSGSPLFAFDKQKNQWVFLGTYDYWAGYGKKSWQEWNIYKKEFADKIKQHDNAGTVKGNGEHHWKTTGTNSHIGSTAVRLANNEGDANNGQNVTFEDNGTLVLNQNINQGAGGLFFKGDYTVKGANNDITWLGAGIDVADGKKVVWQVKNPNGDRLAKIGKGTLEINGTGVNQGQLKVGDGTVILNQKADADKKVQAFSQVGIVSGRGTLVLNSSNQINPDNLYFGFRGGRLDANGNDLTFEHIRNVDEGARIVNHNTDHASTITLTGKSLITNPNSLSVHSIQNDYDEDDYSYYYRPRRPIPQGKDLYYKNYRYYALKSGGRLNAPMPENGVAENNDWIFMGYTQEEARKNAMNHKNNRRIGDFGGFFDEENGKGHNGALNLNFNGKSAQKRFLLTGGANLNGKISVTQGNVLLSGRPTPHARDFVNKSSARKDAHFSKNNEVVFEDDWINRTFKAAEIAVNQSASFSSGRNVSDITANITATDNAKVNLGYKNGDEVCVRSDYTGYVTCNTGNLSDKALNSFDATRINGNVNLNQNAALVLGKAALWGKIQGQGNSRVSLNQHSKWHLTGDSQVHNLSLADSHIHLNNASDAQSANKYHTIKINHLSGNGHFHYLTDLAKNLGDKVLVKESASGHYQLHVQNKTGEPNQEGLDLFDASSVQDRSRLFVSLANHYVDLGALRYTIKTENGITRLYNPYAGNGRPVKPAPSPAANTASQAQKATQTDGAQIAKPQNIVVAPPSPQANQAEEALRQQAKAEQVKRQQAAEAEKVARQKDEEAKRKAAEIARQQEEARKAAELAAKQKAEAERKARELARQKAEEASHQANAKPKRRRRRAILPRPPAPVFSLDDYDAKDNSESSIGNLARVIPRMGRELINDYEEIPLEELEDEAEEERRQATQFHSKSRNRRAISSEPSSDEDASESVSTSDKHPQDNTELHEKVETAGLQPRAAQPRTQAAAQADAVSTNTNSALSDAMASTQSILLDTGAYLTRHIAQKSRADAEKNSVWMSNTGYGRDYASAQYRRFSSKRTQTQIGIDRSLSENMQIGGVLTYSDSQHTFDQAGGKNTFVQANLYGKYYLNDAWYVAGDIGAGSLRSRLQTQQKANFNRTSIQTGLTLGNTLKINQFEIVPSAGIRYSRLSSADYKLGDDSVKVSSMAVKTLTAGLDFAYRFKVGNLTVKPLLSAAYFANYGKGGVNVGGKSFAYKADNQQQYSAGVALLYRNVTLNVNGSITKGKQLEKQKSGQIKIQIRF

The molecule `C[C@@H](O)[C@H](NC(=O)[C@@H]1CCCN1C(=O)[C@@H]1CCCN1)C(=O)N1CCC[C@H]1C(=O)O` (H-PPTP-OH) showed a half-maximal inhibitory concentration (IC50) of 40.5 µM. Next, `C[C@@H](O)[C@H](NC(=O)[C@@H]1CCCN1)C(=O)N1CCC[C@H]1C(=O)N[C@@H](CO)C(N)=O` (H-PTPS-NH2): 5.3 µM; `CC(=O)N[C@@H](CO)C(=O)N[C@H](C(=O)N1CCC[C@H]1C(=O)N1CCC[C@H]1C(N)=O)[C@@H](C)O` (Ac-STPP-NH2): more than 1000 µM; `CC(=O)N[C@H](C(=O)N1CCC[C@H]1C(=O)N[C@@H](CO)C(=O)N1CCC[C@H]1C(=O)O)[C@@H](C)O` (Ac-TPSP-OH): 183 µM. Next, `NC(=O)[C@H](CO)NC(=O)[C@@H]1CCCN1C(=O)[C@H](CO)NC(=O)[C@@H]1CCCN1` (H-PSPS-NH2): more than 1000 µM; `C[C@@H](O)[C@H](N)C(=O)N1CCC[C@H]1C(=O)N1CCC[C@H]1C(=O)N[C@H](C(=O)O)[C@@H](C)O` (H-TPPT-OH): more than 1000 µM. Next, `CC(=O)N[C@H](C(=O)N1CCC[C@H]1C(=O)N[C@@H](CO)C(=O)N1CCC[C@H]1C(N)=O)[C@@H](C)O` [ACETYLTHREONYLPROLYLSERYLPROLINAMIDE(ACTPSPNH2)] (Ac-TPSP-NH2): more than 1000 µM; `CC(=O)N[C@@H](CO)C(=O)N[C@H](C(=O)N1CCC[C@H]1C(=O)N1CCC[C@H]1C(=O)O)[C@@H](C)O` (Ac-STPP-OH): 9.7 µM. In the case of `C[C@@H](O)[C@H](NC(=O)[C@@H]1CCCN1)C(=O)N1CCC[C@H]1C(=O)N[C@@H](CO)C(=O)O` (H-PTPS-OH), the IC50 is more than 1000 µM.

`C[C@@H](O)[C@H](NC(=O)[C@@H]1CCCN1C(=O)[C@@H]1CCCN1)C(=O)N1CCC[C@H]1C(N)=O` [PROLYLPROLYLTHREONYLPROLINAMIDE(PPTPNH2)] (H-PPTP-NH2): the concentration for half-maximal inhibition (IC50) is more than 1000 µM. `CC(=O)N1CCC[C@H]1C(=O)N[C@H](C(=O)N1CCC[C@H]1C(=O)N[C@@H](CO)C(=O)O)[C@@H](C)O` (Ac-PTPS-OH) showed an IC50 of 23.8 µM. Next, `CC(=O)N1CCC[C@H]1C(=O)N[C@H](C(=O)N1CCC[C@H]1C(=O)N[C@@H](CO)C(N)=O)[C@@H](C)O` [ACETYLPROLYLTHREONYLPROLYLSERINAMIDE(ACPTPSNH2)] (Ac-PTPS-NH2): more than 1000 µM; `CC(=O)N[C@H](C(=O)N1CCC[C@H]1C(=O)N1CCC[C@H]1C(=O)N[C@H](C(N)=O)[C@@H](C)O)[C@@H](C)O` (Ac-TPPT-NH2): more than 1000 µM; `CC(=O)N[C@H](C(=O)N1CCC[C@H]1C(=O)N1CCC[C@H]1C(=O)N[C@H](C(=O)O)[C@@H](C)O)[C@@H](C)O` (Ac-TPPT-OH): more than 1000 µM.

Molecule `C[C@@H](O)[C@H](N)C(=O)N1CCC[C@H]1C(=O)N1CCC[C@H]1C(=O)N[C@H](C(N)=O)[C@@H](C)O` (H-TPPT-NH2) had an IC50 of 419 µM. In the case of `CC(=O)N1CCC[C@H]1C(=O)N1CCC[C@H]1C(=O)N[C@H](C(=O)N1CCC[C@H]1C(=O)O)[C@@H](C)O` (Ac-PPTP-OH), the half-maximal inhibitory concentration (IC50) is more than 1000 µM. For the molecule `C[C@@H](O)[C@H](NC(=O)[C@@H](N)CO)C(=O)N1CCC[C@H]1C(=O)N1CCC[C@H]1C(=O)O` (H-STPP-OH), half-maximal inhibition (IC50) was put at 73 µM. As to `C[C@@H](O)[C@H](NC(=O)[C@@H](N)CO)C(=O)N1CCC[C@H]1C(=O)N1CCC[C@H]1C(N)=O` (H-STPP-NH2), the half-maximal inhibitory concentration (IC50) was more than 1000 µM. In turn, `CC(=O)N1CCC[C@H]1C(=O)N[C@@H](CO)C(=O)N1CCC[C@H]1C(=O)N[C@@H](CO)C(N)=O` [ACETYLPROLYLSERYLPROLYLSERINAMIDE(ACPSPSNH2)] (Ac-PSPS-NH2) yielded an IC50 of more than 1000 µM. With `CC(=O)N1CCC[C@H]1C(=O)N[C@@H](CO)C(=O)N1CCC[C@H]1C(=O)N[C@@H](CO)C(=O)O` (Ac-PSPS-OH), the IC50 is 675 µM. Next, `C[C@@H](O)[C@H](N)C(=O)N1CCC[C@H]1C(=O)N[C@@H](CO)C(=O)N1CCC[C@H]1C(N)=O` [THREONYLPROLYLSERYLPROLINAMIDE(TPSPNH2)] (H-TPSP-NH2): more than 1000 µM. The result for `O=C(O)[C@H](CO)NC(=O)[C@@H]1CCCN1C(=O)[C@H](CO)NC(=O)[C@@H]1CCCN1` (H-PSPS-OH) reads more than 1000 µM; that for `CC(=O)N1CCC[C@H]1C(=O)N1CCC[C@H]1C(=O)N[C@H](C(=O)N1CCC[C@H]1C(N)=O)[C@@H](C)O` [ACETYLPROLYLPROLYLTHREONYLPROLINAMIDE(ACPPTPNH2)] (Ac-PPTP-NH2), more than 1000 µM; that for `C[C@@H](O)[C@H](N)C(=O)N1CCC[C@H]1C(=O)N[C@@H](CO)C(=O)N1CCC[C@H]1C(=O)O` (H-TPSP-OH), 33.1 µM.

The values above are taken from ChEMBL document CHEMBL1124361, “Tetrapeptide inhibitors of the IgA1 proteinases from type I Neisseria gonorrhoeae” (J Med Chem, 1989).
